From patent publication US11767316B2, “Non-fused thiophene derivatives and their uses” (ENYO PHARMA, priority 2018, dated 2023)
Where two headings read alike, the source gives them in different places.

How the values were obtained:
[1] = test system: H1N1 (influenza A/New Caledonia/20/99); test: Antiviral effect on A549 cells infected with H1N1 (MUNANA neuraminidase readout); format: cell-based; details: H1N1 A/New Caledonia/20/99 at MOI 0.1, 48 h post-infection, MUNANA fluorescence
Protocol: The antiviral effect of the compounds of the invention have been tested on A549 cell lines infected with H1N1 (influenza A/New Caledonia/20/99).
Human A549 cells (80,000 cells/well in a 96 well plate) were treated with a range of concentration of test compounds and immediately infected by H1N1 A/New Caledonia/20/99 virus (clinical isolate) at MOI of 0.1 in DMEM/1% Penicillin/streptomycin supplemented with 0.25 μg/ml TPCK trypsin (Sigma) and incubated at 37° C. in 5% CO2. 48 h post-infection, supernatants (25 μl) were collected and transferred into a 96-well black flat-bottom plate, mixed with 25 μl PBS with Ca++/Mg++(Thermo Fisher) and 50 μl of 2′-(4-Methylumbelliferyl)-α-D-N-acetylneuraminic acid sodium salt hydrate stock-solution (20 μM, MUNANA, Sigma). Plates were incubated 1 h at 37° C. and reaction is stopped by adding 100 μl of Stop Solution (glycine 0.1 M pH10.7/25% ethanol). The amount of fluorescent product released by MUNANA hydrolysis (4-MU) was measured in a Tecan spectrophotometer with excitation and emission wavelengths of 365 and 450 nm respectively.

[2] = test system: NFκB; test: NFκB reporter assay (NanoLuciferase) in A549 cells, TNFα stimulation; format: cell-based; details: Homo sapiens, 4 ng/ml TNFα, 6 hours
From the text: Compounds of the present invention have been tested for their capacity to inhibit NFκB.
The NFκB reporter construct was made by cloning 5 NFκB responsive elements upstream of a NanoLuciferase reporter gene flanked by AAVS1 genomic sequences.
NFκB Responsive element fused with NanoLuciferase and SV40 late Poly(A) signal was amplified from pNL3.2-NFκB-Nluc (Promega) using NFKB-NLUC-F and NFKB-NLUC-R primers and inserted by Infusion (TaKaRa) in AAVS1 SA-2A-puro-pA donor plasmid (Hockemeyer et al, Nat Biotechnol. 2009, 27, 851-7) digested by Sal1. pCRISPR AAVS1-T2 expressing a guide RNA (gRNA) to target human AAVS1 (T2 target sequence) was constructed by inserting AAVS1-T2A hybridized primers in pLentiCRISPR v2-blast (Sanjana et al, Nat Methods. 2014, 11, 783-4) digested by Bsmb1.
A549 cells were transfected by the plasmids and puromycine selected for 5 days (1 μg mL-1). Then clones were obtained by limiting dilution and selected to maximize TNFα dependent NFkB-NanoLuciferase induction.
The reporter cells were seeded on a 96-well plate for overnight with DMEM including 10% FBS. Test compounds were added at varying concentrations. The cells then were treated with 4 ng/ml TNFα (Peprotech, ref E251) in DMEM+10% FBS. NanoGlo luciferase assay (Promega) was carried out 6 hours later. Luminescence was measured using a Spark 20M spectrofluorimeter (Tecan). Values were normalized to the luminescence measured in untreated cells.

[3] = Influenza A virus, H1N1, A549, 48 h, read-out: IC50

CN1CCOc2cc(C(=O)Nc3scc(C4CCc5ccccc5C4)c3C(=O)O)ccc21 (stereo not shown) [#86]
IC50 [1, 3]: 2 nM | EC50 [2]: 40 nM

COCCNc1cccc(C(=O)Nc2scc(C3CCc4ccccc4C3)c2C(=O)O)c1 (stereo not shown) [#94]
IC50 [1, 3]: 2 nM | EC50 [2]: 90 nM

CC(C)Oc1ccc(C(=O)Nc2scc(C3CCc4ccccc4C3)c2C(=O)O)cc1 (stereo not shown) [#180]
IC50 [1, 3]: 0.3 nM | EC50 [2]: 50 nM

COc1ccc(C(=O)Nc2scc(C3CCc4ccccc4C3)c2C(=O)O)cc1F (stereo not shown) [#162]
IC50 [1, 3]: 4 nM | EC50 [2]: 200 nM

O=C(Nc1scc(C2CCc3ccccc3C2)c1C(=O)O)c1ccc(F)cc1 (stereo not shown) [#151]
IC50 ([1]; read-out: IC50): 2 nM | EC50 [2]: 90 nM

O=C(Nc1scc(C2CCCc3ccccc32)c1C(=O)O)c1ccccc1 (stereo not shown) [#124]
IC50 [1, 3]: 237 nM | EC50 [2]: 910 nM

O=C(Nc1scc(C2CCc3ccccc3C2)c1C(=O)O)c1ccc(N2C[C@@H]3C[C@H]2CO3)cc1 (stereo partly shown) [#140]
IC50 [1, 3]: 3.5 nM | EC50 [2]: 40 nM

O=C(Nc1scc(C2CCc3ccccc32)c1C(=O)O)c1ccccc1 (stereo not shown) [#19]
IC50 [1, 3]: 67 nM | EC50 [2]: 200 nM

O=C(Nc1scc(C2CCc3ccccc3C2)c1C(=O)O)c1ccc(OC(F)F)cc1 (stereo not shown) [#152]
IC50 ([1]; read-out: IC50): 2 nM | EC50 [2]: 160 nM

COCCCNc1ccc(C(=O)Nc2scc(C3CCc4ccccc43)c2C(=O)O)cc1 (stereo not shown) [#57]
IC50 [1, 3]: 76 nM | EC50 [2]: 80 nM

O=C(Nc1sc(Cl)c(C2CCc3ccccc3C2)c1C(=O)O)c1ccccc1 (stereo not shown) [#17]
IC50 [1, 3]: 38.3 nM | EC50 [2]: 180 nM

O=C(Nc1scc(-c2ccc3c(c2)CCCC3)c1C(=O)O)c1ccc(F)cc1 [#125]
IC50 [1, 3]: 237 nM

O=C(Nc1scc(C2CCc3ccccc3C2)c1C(=O)O)c1ccc(N2CCCC2=O)cc1 (stereo not shown) [#168]
IC50 [1, 3]: 11 nM

N#Cc1ccc(C(=O)Nc2scc(C3CCc4ccccc4C3)c2C(=O)O)cc1 (stereo not shown) [Compound #183, 2-[(4-Cyanobenzoyl)amino]-4-tetralin-2-yl-thiophene-3-carboxylic acid]
IC50 ([1]; Influenza A virus, H1N1, A549, 48 h): 462 nM
